Test results from US7964624B1, “Inhibitors of serine proteases” (priority 2005, dated 2011).

Key:
HCV NS3 protease domain = molecular target: T1, HCV NS3 protease domain (Hepatitis C virus genotype 1b, UniProt Q9WMX2); assay: biochemical; conditions: Enzyme Assay 1 (HCV NS3 Protease Domain Peptide Cleavage Assay) activity, apparent Ki class
T1 construct: The first 181 amino acids of NS3 (residues 1027-1207 of the viral polyprotein); hexa-histidine (C); made in house; host or cells: E. coli BL21/DE3 pLysS

[1] = molecular target: T2, full-length hepatitis C viral protein NS3•4A (Hepatitis C virus genotype 1a, UniProt P27958); assay: biochemical; parameters: species or system HCV sub-type strain 1a; conditions: Enzyme Assay 2 (HCV NS3 Peptide Cleavage Assay) activity, apparent Ki class
T2 construct: hexa-histidine (N); made in house; host or cells: Sf9 insect cells (baculovirus, pVL1392)

SMILES	Ki (HCV NS3 protease domain)	Ki [1]
CCC[C@H](NC(=O)[C@@H]1C[C@]2(CC(c3cccc(Cl)c3)=NO2)CN1C(=O)[C@@H](NC(=O)C1CCCCC1)C(C)(C)C)C(=O)C(=O)NC1CC1 [Compound 93]	100 to 500 nM	< 100 nM
CCC[C@H](NC(=O)[C@@H]1C[C@]2(CC(c3cccc(Cl)c3)=NO2)CN1C(=O)[C@@H](NC(=O)CC1CCCCC1)C(C)(C)C)C(=O)C(=O)Nc1ccc(C)c(C#N)c1 [Compound 96]	> 500 nM	100 to 500 nM
CCC[C@H](NC(=O)[C@@H]1C[C@]2(CC(c3cccc(Cl)c3)=NO2)CN1C(=O)[C@H](CC(C)C)NC(C)=O)C(=O)C(=O)NC1CC1 [Compound 98]	> 500 nM	100 to 500 nM
CCC[C@H](NC(=O)[C@@H]1C[C@]2(CC(c3cccc(Cl)c3)=NO2)CN1C(=O)[C@@H](NC(=O)CC1CCCCC1)C(C)(C)C)C(=O)C(=O)NC1CCCCC1 [Compound 99]	> 500 nM	> 500 nM
CCC[C@H](NC(=O)[C@@H]1C[C@]2(CC(c3cccc(Cl)c3)=NO2)CN1C(=O)C(NS(=O)(=O)c1ccc(F)cc1)C(C)C)C(=O)C(=O)NC1CC1 (some centres unmarked) [Compound 100]	> 500 nM	> 500 nM
CCC[C@H](NC(=O)[C@@H]1C[C@@]2(CC(c3cc(C)c(OC)c(Cl)c3)=NO2)CN1C(=O)[C@@H](NC(=O)CC1CCCCC1)C(C)(C)C)C(=O)C(=O)NC1CC1 [Compound 111]	100 to 500 nM	100 to 500 nM
CCC[C@H](NC(=O)[C@@H]1C[C@]2(CC(c3cccc(Cl)c3)=NO2)CN1C(=O)[C@H](NC(=O)CC1CCCCC1)C(C)(C)C)C(=O)C(=O)N(CC)CC [Compound 113]	> 500 nM	> 500 nM
C=C[C@@H]1C[C@]1(NC(=O)[C@@H]1C[C@]2(CC(c3cccc(Cl)c3)=NO2)CN1C(=O)[C@@H](NC(=O)CC1CCCCC1)C(C)(C)C)C(=O)NS(=O)(=O)NC1CC1 [Compound 115]	> 500 nM	100 to 500 nM
CCC[C@H](NC(=O)[C@@H]1C[C@]2(CC(C(=O)c3ccccc3)=NO2)CN1C(=O)[C@@H](NC(=O)NC(C)(C)C)C(C)(C)C)C(=O)C(=O)NC1CC1 [Compound 119]	100 to 500 nM	100 to 500 nM
CCC[C@H](NC(=O)[C@@H]1C[C@]2(CC(c3cccc(Cl)c3)=NO2)CN1C(=O)[C@@H](NC(=O)CC1CCCCC1)C(C)(C)C)C(=O)C(=O)NC(c1ccccc1)c1ccccn1 (some centres unmarked) [Compound 120]	> 500 nM	> 500 nM
CCC[C@H](NC(=O)[C@@H]1C[C@]2(CC(c3cccc(Cl)c3)=NO2)CN1C(=O)[C@@H](NC(=O)CC1CCOC(C)(C)C1)C(C)(C)C)C(=O)C(=O)NC1CC1 (some centres unmarked) [Compound 121]	100 to 500 nM	< 100 nM
CCC[C@H](NC(=O)[C@@H]1C[C@]2(CC(c3cccc(Cl)c3)=NO2)CN1C(=O)[C@@H](NC(=O)CC1CCCCC1)C(C)OC)C(=O)C(=O)NC1CC1 (some centres unmarked) [Compound 124]	> 500 nM	100 to 500 nM
CCC[C@H](NC(=O)[C@@H]1C[C@]2(CC(c3cccc(Cl)c3)=NO2)CN1C(=O)[C@@H](NC(=O)CC1CCCCC1)[C@@H](C)c1ccccc1)C(=O)C(=O)NC1CC1 [Compound 125]	100 to 500 nM	100 to 500 nM
CCC[C@H](NC(=O)[C@@H]1C[C@]2(CC(c3cccc(Cl)c3)=NO2)CN1C(=O)[C@@H](NC(=O)CC1CCCCC1)C(C)(C)C)C(=O)C(=O)NCc1cc(OC)cc(OC)c1 [Compound 127]	100 to 500 nM	100 to 500 nM
C=CCOC(=O)N[C@H](C(=O)N1C[C@@]2(CC(c3cccc(Cl)c3)=NO2)C[C@H]1C(=O)N[C@]1(C(=O)NS(=O)(=O)C2CC2)C[C@H]1C=C)C(C)(C)C [Compound 130]	100 to 500 nM	< 100 nM
CC(C)(C)[C@H](NC(=O)CC1CCCCC1)C(=O)N1C[C@@]2(CC(c3cncc(Cl)c3)=NO2)C[C@H]1C(=O)NC(CC1CCC1)C(=O)C(=O)NC1CC1 (some centres unmarked) [Compound 132]	100 to 500 nM	100 to 500 nM

SMILES	Ki (HCV NS3 protease domain)	Ki [1]
CCC[C@H](NC(=O)[C@@H]1C[C@]2(CC(c3cccc(Cl)c3)=NO2)CN1C(=O)[C@@H](NC(=O)CC1CCCCC1)C(C)(C)C)C(=O)C(=O)N1CC(OCC)C1 [Compound 133]	100 to 500 nM	100 to 500 nM
CCC[C@H](NC(=O)[C@@H]1C[C@]2(CC(c3cc(Cl)cc4c3OCC4)=NO2)CN1C(=O)[C@@H](NC(=O)CC1CCCCC1)C(C)(C)C)C(=O)C(=O)NC1CC1 [Compound 134]	100 to 500 nM	< 100 nM
CCC[C@H](NC(=O)[C@@H]1C[C@]2(CC(c3cc(F)c(OCC)c(Cl)c3)=NO2)CN1C(=O)[C@@H](NC(=O)CC1CCCCC1)C(C)(C)C)C(=O)C(=O)NC1CC1 [Compound 136]	100 to 500 nM	100 to 500 nM
CCC[C@H](NC(=O)[C@@H]1C[C@]2(CC(c3cccc(Cl)c3)=NO2)CN1C(=O)[C@@H](NC(=O)CC1CCCCC1)C(C)(C)C)C(=O)C(=O)NC(C)Cc1c[nH]c2ccc(C(C)=O)cc12 (some centres unmarked) [Compound 138]	> 500 nM	> 500 nM
CCC[C@H](NC(=O)[C@@H]1C[C@]2(CC(c3cccc(Cl)c3)=NO2)CN1C(=O)[C@@H](NC(=O)CC1CCCCC1)C(C)(C)C)C(=O)C(=O)NCC1COc2ccccc2O1 (some centres unmarked) [Compound 141]	> 500 nM	100 to 500 nM
CCC[C@H](NC(=O)[C@@H]1C[C@]2(CC(c3cccc(Cl)c3)=NO2)CN1C(=O)[C@@H](NC(=O)CC1CCCCC1)C(C)(C)C)C(=O)C(=O)NCC(C)C [Compound 143]	100 to 500 nM	100 to 500 nM
CCC[C@H](NC(=O)[C@@H]1C[C@]2(CC(c3cccc(Cl)c3)=NO2)CN1C(=O)[C@@H](NC(=O)CC1CCCCC1)C(C)(C)C)C(=O)C(=O)Nc1cccc(NS(C)(=O)=O)c1 [Compound 148]	> 500 nM	> 500 nM
CCC[C@H](NC(=O)[C@@H]1C[C@]2(CC(c3cccc(Cl)c3)=NO2)CN1C(=O)C(NC(=O)CC1C[C@@H](C)O[C@H](C)C1)C(C)(C)C)C(=O)C(=O)NC1CC1 (some centres unmarked) [Compound 153]	100 to 500 nM	100 to 500 nM
CCC[C@H](NC(=O)[C@@H]1C[C@]2(CC(c3cc(Cl)ccc3OC)=NO2)CN1C(=O)[C@@H](NC(=O)CC1CCCCC1)C(C)(C)C)C(=O)C(=O)NC1CC1 [Compound 158]	< 100 nM	< 100 nM
C=C[C@@H]1C[C@]1(NC(=O)[C@@H]1C[C@]2(CC(c3cccc(Cl)c3)=NO2)CN1C(=O)[C@@H](NC(=O)CC1CCCCC1)C(C)(C)C)C(=O)NS(=O)(=O)C1CC1 [Compound 162]	100 to 500 nM	< 100 nM
CC(C)(C)OC(=O)N[C@H]1CCCCC/C=C\[C@@H]2C[C@@]2(C(=O)NS(=O)(=O)C2CC2)NC(=O)[C@@H]2C[C@]3(CC(C(=O)c4ccccc4)=NO3)CN2C1=O [Compound 163]	< 100 nM	< 100 nM
CCC[C@H](NC(=O)[C@@H]1C[C@]2(CC(c3cc(Cl)cnc3OC)=NO2)CN1C(=O)[C@@H](NC(=O)CC1CCCCC1)C(C)(C)C)C(=O)C(=O)NC1CC1 [Compound 165]	100 to 500 nM	< 100 nM
CCC[C@H](NC(=O)[C@@H]1C[C@]2(CC(c3ccsc3)=NO2)CN1C(=O)[C@@H](NC(=O)CC1CCCCC1)C(C)(C)C)C(=O)C(=O)NC1CC1 [Compound 168]	100 to 500 nM	100 to 500 nM
CCC[C@H](NC(=O)[C@@H]1C[C@]2(CC(c3cccc(Cl)c3)=NO2)CN1C(=O)[C@@H](Nc1ccccc1)C(C)(C)C)C(=O)C(=O)NC1CC1 [Compound 172]	> 500 nM	100 to 500 nM
CCC[C@H](NC(=O)[C@@H]1C[C@]2(CC(c3cccc(Cl)c3)=NO2)CN1C(=O)[C@@H](NC(=O)CC1CCCCC1)C(C)(C)C)C(=O)C(=O)NCc1csc(-c2ccccc2)n1 [Compound 176]	100 to 500 nM	100 to 500 nM
